Where “and” joins values, the source holds several entries; their conditions need not be identical. Equal values may be shown once.
How the values were obtained:
human integrin αvβ6 [1] = biological target: T1, human integrin αvβ6 (Homo sapiens, UniProt P06756+P18564, DEL708-788); assay: Equilibrium binding of yeast-displayed knottins to soluble integrin αvβ6 (two-colour flow cytometry, KD); details: KD, equilibrium binding, knottin expressed on yeast surface vs soluble human integrin αvβ6; ± S.D., three replicates on separate days
T1 construct: purchased R&D Systems
T1 sequence (P06756 31-992 limits assumed, stated change not applied): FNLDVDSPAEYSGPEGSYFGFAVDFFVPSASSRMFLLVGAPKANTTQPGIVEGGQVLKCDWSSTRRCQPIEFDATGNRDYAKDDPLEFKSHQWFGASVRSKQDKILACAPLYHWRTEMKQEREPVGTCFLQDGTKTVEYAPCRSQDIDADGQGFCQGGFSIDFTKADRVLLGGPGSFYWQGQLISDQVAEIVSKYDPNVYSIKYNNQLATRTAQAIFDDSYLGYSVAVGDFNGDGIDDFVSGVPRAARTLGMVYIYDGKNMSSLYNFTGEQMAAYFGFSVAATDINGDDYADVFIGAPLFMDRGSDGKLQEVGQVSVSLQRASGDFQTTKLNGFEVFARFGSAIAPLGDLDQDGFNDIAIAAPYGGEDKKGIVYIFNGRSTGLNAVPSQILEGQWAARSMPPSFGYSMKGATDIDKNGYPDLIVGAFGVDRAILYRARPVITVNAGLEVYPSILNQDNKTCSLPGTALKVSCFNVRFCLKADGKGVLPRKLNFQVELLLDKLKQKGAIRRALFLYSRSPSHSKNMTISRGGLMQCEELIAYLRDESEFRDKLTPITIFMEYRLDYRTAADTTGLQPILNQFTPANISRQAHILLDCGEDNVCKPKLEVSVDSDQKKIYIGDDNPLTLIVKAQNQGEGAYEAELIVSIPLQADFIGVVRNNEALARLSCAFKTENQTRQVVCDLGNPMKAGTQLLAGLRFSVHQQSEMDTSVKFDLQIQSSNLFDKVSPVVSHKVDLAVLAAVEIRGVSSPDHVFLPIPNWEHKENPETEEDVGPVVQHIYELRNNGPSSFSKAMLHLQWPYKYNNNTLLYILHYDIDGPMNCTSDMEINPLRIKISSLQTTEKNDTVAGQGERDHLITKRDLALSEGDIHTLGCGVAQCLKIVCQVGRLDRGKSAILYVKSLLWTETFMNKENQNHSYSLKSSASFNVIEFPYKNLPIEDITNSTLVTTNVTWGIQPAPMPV
T1 sequence (P18564 22-707 limits assumed, stated change not applied): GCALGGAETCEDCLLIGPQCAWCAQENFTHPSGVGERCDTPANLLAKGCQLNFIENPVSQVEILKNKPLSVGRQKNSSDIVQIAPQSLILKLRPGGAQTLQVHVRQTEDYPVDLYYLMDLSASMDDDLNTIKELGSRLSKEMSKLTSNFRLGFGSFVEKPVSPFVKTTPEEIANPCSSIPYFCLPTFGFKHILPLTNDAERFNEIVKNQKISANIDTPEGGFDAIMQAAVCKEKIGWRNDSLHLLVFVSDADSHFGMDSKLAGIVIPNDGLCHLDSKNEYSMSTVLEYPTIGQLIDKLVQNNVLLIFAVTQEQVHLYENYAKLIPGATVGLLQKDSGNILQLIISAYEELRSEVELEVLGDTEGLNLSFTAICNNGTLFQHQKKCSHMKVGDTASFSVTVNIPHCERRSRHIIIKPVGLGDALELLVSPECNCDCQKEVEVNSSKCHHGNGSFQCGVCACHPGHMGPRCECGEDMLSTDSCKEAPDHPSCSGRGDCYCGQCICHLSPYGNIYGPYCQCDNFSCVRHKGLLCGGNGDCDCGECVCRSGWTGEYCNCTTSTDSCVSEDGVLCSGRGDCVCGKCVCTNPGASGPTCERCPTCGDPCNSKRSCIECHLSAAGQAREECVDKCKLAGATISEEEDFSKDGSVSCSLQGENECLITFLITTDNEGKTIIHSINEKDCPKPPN

human integrin αvβ6 [2] = biological target: T1, human integrin αvβ6; assay: Competition binding (IC50) against yeast surface-displayed R01-MG; details: compete with R01-MG displayed on yeast

Structure (SMILES): CC[C@H](C)[C@@H]1NC(=O)[C@@H](NC(=O)CN)CSSC[C@@H]2NC(=O)[C@H](C)NC(=O)CNC(=O)[C@@H]3CCCN3C(=O)[C@@H]3CSSC[C@@H](C(=O)NCC(N)=O)NC(=O)[C@H](Cc4ccc(O)cc4)NC(=O)CNC(=O)[C@H](CC(N)=O)NC(=O)CNC(=O)[C@H](CCCNC(=N)N)NC(=O)[C@H](CSSC[C@H](NC(=O)[C@H](CCCNC(=N)N)NC(=O)[C@H](Cc4ccccc4)NC(=O)[C@H](CC(C)C)NC(=O)[C@H](CC(C)C)NC(=O)[C@H]([C@@H](C)O)NC(=O)CNC(=O)[C@H](CC(C)C)NC(=O)[C@H](CC(=O)O)NC(=O)[C@H]([C@@H](C)O)NC(=O)[C@H](CCCNC(=N)N)NC(=O)CNC(=O)[C@H](CC(N)=O)NC(=O)[C@H](CC(C)C)NC1=O)C(=O)N[C@@H](CCCNC(=N)N)C(=O)N[C@@H](CCCNC(=N)N)C(=O)N[C@@H](CC(=O)O)C(=O)N[C@@H](CO)C(=O)N[C@@H](CC(=O)O)C(=O)N3)NC(=O)[C@H]([C@@H](C)CC)NC2=O [R01-MG]
- Kd (human integrin αvβ6 [1]): ~1 nM and 1.24 nM
- binding affinity for integrin avb6 in competition binding (IC50), in words (human integrin αvβ6 [2]): subnanomolar

Source: PMC6791878, “Evaluation of integrin αvβ6 cystine knot PET tracers to detect cancer and idiopathic pulmonary fibrosis” (Nature Communications, 2019)
